Source: US6767902B2, “Androgen as a male contraceptive and non-contraceptive androgen replacement” (The Population Council, Inc., priority 1997, dated 2004)

Tests used:
[1] = tested on: serum levels of LH, FSH, T and DHT; test: MENT Ac subcutaneous implants in healthy men for 28 days: serum hormone levels; assay type: in vivo, human
Method: (§1) Forty-five healthy, normal male subjects were selected for a study of the contraceptive effect of androgens alone. Subjects were treated over the course of four weeks, during which extensive blood work-ups were undertaken. The subjects were divided into three groups of 15 each. Group A received one subcutaneous implant, Group B received two subcutaneous implants and Group C received four subcutaneous implants. Implants remained in place for 28 consecutive days.
(§2) The total duration of the study was 42 days. Each man included in the study was assessed through a medical history and a complete general physical examination and a determination of general eligibility. Subjects were tested on a weekly basis for six consecutive weeks at approximately the same time each day. Day 1 was the date of the subdermal implant's insertion and Day 29 was removal. On the last day of the study, Day 43, subjects received a general physical examination, as well as an additional battery of blood tests. Blood samples for hormone immuno assays MENT (7 mL), FSH, LH and testosterone (5 mL for the last 3 hormones together) were obtained during pre-admission and each subsequent visit.
FIG. 2 illustrates the effect of MENT Ac implants on mean serum LH concentration. […] By suppressing LH, testosterone production is suppressed. […] A reduction in testosterone reduces or eliminates spermatogenesis. However, because androgen is being supplied, sexual function is generally maintained.
Finally, FIG. 3 illustrates the effect of MENT Ac implants on the mean serum FSH concentration. […] FSH stimulates germ cell production. If germ cells are present, but testosterone is insufficient, then spermatogenesis cannot take place and sperm cells will not be produced. Similarly, if FSH concentrations are low enough, germ cells will not be produced and spermatogenesis cannot take place irrespective of testosterone levels.

[2] = MENT Ac subcutaneous implants in healthy men: serum MENT levels and in vivo release; parameters: species or system human
Method: as §1, §2

[3] = tested on: serum levels of LH, FSH and T; test: Multiple-dose daily i.m. injection of MENT in normal men for six days: serum hormone levels; assay type: in vivo, human
Method: Two multiple injection studies were undertaken in which groups of four normal, non-sterile men each received 1, 2 or 4 mg of MENT daily by intramuscular (i.m.) injection for six consecutive days (24 men, 12 in each study). The formulation in each injection included the appropriate amount of MENT suspended in 27.6 mg/mL of polyethylene glycol, 1.8 mg/mL of Tween 80 and 8.3 mg/mL of sodium chloride. Serum FSH, LH and testosterone levels were measured daily. The results are illustrated in FIGS. 7-12.
The values returned to the normal range by day 15-30 of the study period. With reference to FIG. 8 (open boxes connected by a line=1 mg, closed boxes connected by a line=2 mg, open circles connected by a line=4 mg) a dose of at least 4 mg was required to obtain serum levels of FSH below two international units (“IU”) per liter by day 6. This must be compared with the results obtained by the use of 1000 μg (1 mg) of the same androgen delivered by a subcutaneous implant as illustrated in FIGS. 2-4 and Example 1. Therefore, considerably more of this same androgen was required to obtain certain depressed serum levels of LH, FSH and testosterone in males when the androgen was administered through a once-a-day intramuscular injection when compared to continuous release implants. […] FIG. 7 illustrates the level of serum LH achieved in the first study and FIG. 9 illustrates the level of serum testosterone achieved. FIGS. 10-12 illustrate the levels of LH, FSH and testosterone realized by the same protocol at the second testing site. Both the data and the overall trends of both studies are largely the same.

[4] = tested on: prostate; conditions: in the potency ranges contemplated; cited from earlier work
[5] = single implant, about 500 micrograms MENT Ac per day, about 28 days
[6] = two implants simultaneously, about 1,000 micrograms MENT Ac per day

CC(=O)O[C@H]1CC[C@H]2[C@H]3[C@H](CC[C@]12C)[C@H]1CCC(=O)C=C1C[C@H]3C [MENT Ac]
mean serum LH concentration ([1]; 2 or 4 implants (500 micrograms each), day 8): nearly undetectable levels of LH
mean serum LH concentration ([1]; first post implant visit on day 8, one, two or four implants): dropped significantly
levels of LH, FSH and testosterone ([1]; four 500 microgram per day implants simultaneously): very comparable to those obtained at the 1000 microgram per day level
mean serum FSH concentration ([1]; one, two or four implants): significant impact on the serum FSH concentration
mean serum T concentration (testosterone) ([1]; single implant): much reduced levels of testosterone
daily blood levels of FSH (average) [1, 5]: above 2 IU/L
daily blood levels of LH (average) [1, 5]: below 2 IU/L
daily blood levels of testosterone [1, 5]: about 5.0 nmol/liter
daily blood levels of FSH (average) [1, 6]: less than 0.5 IU/L
daily blood levels of LH (average) [1, 6]: less than 0.5 IU/L
daily blood levels of testosterone [1, 6]: about 1.0 nmol/liter
mean serum T concentration (testosterone) ([1]; two or four implants): very low testosterone levels
release rate ([2]; 4.4 cm implant, drug load 112±4 mg MENT Ac, based on an in vivo study): approximately 500 micrograms per implant per day
bioavailability from implants ([2]; certain subcutaneous implants, MENT Ac compared with MENT): superior in terms of bioavailability
hydrolysis to MENT ([2]; in vivo): readily hydrolyzed to MENT

C[C@@H]1CC2=CC(=O)CC[C@@H]2[C@H]2CC[C@]3(C)[C@@H](O)CC[C@H]3[C@@H]21 [MENT, 7α-methyl-19-nortestosterone]
levels of the metabolite DHT ([1]; MENT Ac implants, FIG. 5): actually decreased
result in terms of testosterone (contraceptive adequacy) ([3]; 1 mg MENT by i.m. injection once a day): inadequate for contraceptive purposes
contraceptive adequacy from serum testosterone (FIGS. 9 and 12) ([3]; 4 mg MENT by once-a-day i.m. injection): sufficient to ensure that some level of effective contraception is obtained
serum gonadotropins and testosterone levels ([3]; 1, 2 or 4 mg MENT daily i.m. for six days, both studies): gradual decrease
time at which serum gonadotropins and testosterone reached their lowest levels ([3]; 1, 2 or 4 mg MENT daily i.m., end of treatment): six
study day by which values returned to the normal range ([3]; after 1, 2 or 4 mg MENT daily i.m. for six days): 15 to 30 days
dose required to obtain serum levels of FSH below two IU per liter by day 6 ([3]; daily i.m. injection, first study, FIG. 8): at least 4 mg
stimulation of the prostate [4]: stimulates the prostate to a much lower degree

C[C@]12CC[C@H]3[C@@H](CCC4=CC(=O)CC[C@@]43C)[C@@H]1CC[C@@H]2O [testosterone, reference compound]
stimulation of the prostate [4]: can overstimulate the prostate
